Test results: patent US20230091848A1, “DISEASE DETECTION AND TREATMENT BASED ON PHENYLACETYL GLUTAMINE LEVELS” (The Cleveland Clinic Foundation, priority 2020, published 2023)

Assays:
[1] = tested on: human platelet rich plasma (PRP); experiment: Platelet aggregometry in platelet rich plasma; assay type: cell-based; conditions: submaximal ADP
Method: ADP (up to 4 μM), TRAP6 (up to 10 μM) and collagen (up to 1.0 μg/mL) were used as indicated to initiate aggregation with constant stirring (600 rpm).

[2] = tested on: FeCl3-induced carotid artery injury model; experiment: Carotid artery FeCl3 injury thrombosis assay; assay type: in vivo, mice; conditions: i.p. injection 50 mg/kg; vs phenylalanine or saline
Method: Briefly, rhodamine 6G (100 μL; 0.5 mg/mL) was injected directly into the right jugular vein to label platelets. The left carotid artery was exposed and injured by placing a FeCl3-soaked filter paper for 1 minute. […] Time to cessation of blood flow through clot formation for all studies was determined by visual inspection by two different investigators. End points were set as cessation of blood flow for 30 seconds to 30 minutes.

washed human platelets = experiment: Intracellular Ca2+ in Fura 2 loaded washed platelets; assay type: cell-based; conditions: sub-maximal (0.02 U) thrombin
Method: To prepare washed platelets for intracellular Ca^2+ measurements, 100 nM prostaglandin E1 (PGE-1) was added to PRP and the PRP was then centrifuged at 500×g for 20 min at 22° C. […] For ratiometric fluorescence measurements, washed platelets were incubated with Fura 2-AM (1 μM) at 22° C. for 30 min. Excess Fura 2-AM was removed by centrifugation at 500×g for 30 min.

## O=C(O)CNC(=O)Cc1ccccc1 [PAGly, phenylacetylglycine]
[1]
  ADP-stimulated platelet aggregation response: augmented stimulus (ADP) dependent platelet aggregation response
[2]
  platelet thrombus formation within the injured carotid artery: induced heightened platelet thrombus formation within the injured carotid artery
  time to cessation of flow (occlusion time): reduced the time to cessation of flow following injury
Washed human platelets
  thrombin-evoked augmentation of [Ca2+]i: provoked further rise in [Ca^2+]i in response to sub-maximal thrombin exposure
